According to PubChem BioAssay AID248 (DTP/NCI, 2004):
Values joined by “and” are separate entries in the source; they are usually repeats but may differ in a detail not shown here. Equal values may be shown once. Toxic doses and inconclusive results are not listed. Rule as the data show it: active = T/C of 150% or more; inactive = T/C below 125%.

System: L1210 leukemia ip in BDF1 mice, survival T/C
Assay: NCI In Vivo Anticancer Drug Screen. Data for tumor model L1210 Leukemia (intraperitoneal) in B6D2F1 (BDF1) mice
Details: endpoint: mean survival time, higher = longer survival
Procedure, shortened: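 Survival endpoint. Drug-treated group vs vehicle group, expressed as T divided by C. Tumor passaged by transplantation.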

[1] = dose: 100.0 mg/kg/injection, schedule: Q04DX002 (ip), vehicle: Klucel (hydroxypropylcellulose) (HPC)
[2] = dose: 200.0 mg/kg/injection, schedule: Q04DX002 (ip), vehicle: Klucel (hydroxypropylcellulose) (HPC)
[3] = dose: 400.0 mg/kg/injection, schedule: Q04DX002 (ip), vehicle: Klucel (hydroxypropylcellulose) (HPC)
[4] = dose: 100.0 mg/kg/injection, schedule: Q04DX003 (ip), vehicle: saline with Tween-80
[5] = dose: 200.0 mg/kg/injection, schedule: Q04DX003 (ip), vehicle: saline with Tween-80
[6] = dose: 400.0 mg/kg/injection, schedule: Q04DX003 (ip), vehicle: saline with Tween-80
[7] = dose: 100.0 mg/kg/injection, schedule: Q01DX009 (ip), vehicle: saline with Tween-80
[8] = dose: 200.0 mg/kg/injection, schedule: Q01DX009 (ip), vehicle: saline with Tween-80
[9] = dose: 400.0 mg/kg/injection, schedule: Q01DX009 (ip), vehicle: saline with Tween-80
[10] = dose: 100.0 mg/kg/injection, schedule: Q01DX009 (ip), vehicle: saline
[11] = dose: 200.0 mg/kg/injection, schedule: Q01DX009 (ip), vehicle: saline
[12] = dose: 400.0 mg/kg/injection, schedule: Q01DX009 (ip), vehicle: saline
[13] = dose: 100.0 mg/kg/injection, schedule: Q04DX002 (ip), vehicle: saline with Tween-80
[14] = dose: 200.0 mg/kg/injection, schedule: Q04DX002 (ip), vehicle: saline with Tween-80
[15] = dose: 400.0 mg/kg/injection, schedule: Q04DX002 (ip), vehicle: saline with Tween-80
[16] = dose: 50.0 mg/kg/injection, schedule: Q04DX003 (ip), vehicle: saline with Tween-80
[17] = dose: 100.0 mg/kg/injection, schedule: Q01DX001 (ip), vehicle: saline with Tween-80
[18] = dose: 200.0 mg/kg/injection, schedule: Q01DX001 (ip), vehicle: saline with Tween-80
[19] = dose: 400.0 mg/kg/injection, schedule: Q01DX001 (ip), vehicle: saline with Tween-80

Measured: T/C

CN(C)c1ccc(N=Nc2ccc(S(=O)(=O)O)cc2)cc1
inactive: [1] 92 % of control | [2] 103 % of control | [3] 92 % of control

Clc1cc2c(c3c1CONC3)OCO2
inactive: [4] 92 % of control | [5] 90 % of control | [6] 100 % of control

c1ccc(CNNCc2ccccc2)cc1
inactive: dose: 75.0 mg/kg/injection, schedule: Q01DX009 (ip), vehicle: Klucel (hydroxypropylcellulose) (HPC) 102 % of control | dose: 100.0 mg/kg/injection, schedule: Q04DX003 (ip), vehicle: Klucel (hydroxypropylcellulose) (HPC) 102 % of control | dose: 150.0 mg/kg/injection, schedule: Q01DX009 (ip), vehicle: Klucel (hydroxypropylcellulose) (HPC) 109 % of control | dose: 200.0 mg/kg/injection, schedule: Q04DX003 (ip), vehicle: Klucel (hydroxypropylcellulose) (HPC) 94 % of control

CC1(C)C(=O)C(=O)C2CCCCC21 (stereo unspecified)
inactive: [7] 97 % of control | [8] 110 % of control | [9] 92 % of control

COC(=O)c1ccc(=O)n(C/C=C(\C)CCC=C(C)C)c1
inactive: dose: 100.0 mg/kg/injection, schedule: Q01DX001 (ip), vehicle: saline 95 % of control | [10] 104 % of control | dose: 200.0 mg/kg/injection, schedule: Q01DX001 (ip), vehicle: saline 97 % of control | [11] 90 % of control | dose: 400.0 mg/kg/injection, schedule: Q01DX001 (ip), vehicle: saline 101 % of control | [12] 101 % of control

O=S(=O)(c1ccc(N=NN2CCCC2)cc1)N(CCCl)CCCl
inactive: [13] 101 % of control | [14] 101 % of control | [15] 108 % of control

CN1CCN(c2ccc3nnc(Cl)n3n2)CC1
inactive: [16] 97 % of control

CCN(CC)Cc1ccccc1COC(=O)c1ccc(OC)cc1
inactive: dose: 100.0 mg/kg/injection, schedule: Q04DX002 (ip), vehicle: saline 103 % of control | dose: 200.0 mg/kg/injection, schedule: Q04DX002 (ip), vehicle: saline 103 % of control

CC(C)=NOCCCCON=C(C)C
inactive: [17] 101 % of control | [13] 95 % of control and 103 % of control | [18] 100 % of control | [14] 109 % of control and 88 % of control | [19] 92 % of control | [15] 103 % of control and 88 % of control

CCOc1ccc([N+](=O)[O-])cc1CN(CC)CC
inactive: dose: 5.0 mg/kg/injection, schedule: Q01DX009 (ip), vehicle: saline 97 % of control | dose: 9.5 mg/kg/injection, schedule: Q01DX001 (ip), vehicle: saline 109 % of control | dose: 10.0 mg/kg/injection, schedule: Q01DX009 (ip), vehicle: saline 95 % of control | dose: 10.0 mg/kg/injection, schedule: Q04DX003 (ip), vehicle: saline 97 % of control | dose: 19.0 mg/kg/injection, schedule: Q01DX001 (ip), vehicle: saline 106 % of control | dose: 20.0 mg/kg/injection, schedule: Q01DX009 (ip), vehicle: saline 89 % of control | dose: 20.0 mg/kg/injection, schedule: Q04DX003 (ip), vehicle: saline 102 % of control | dose: 38.0 mg/kg/injection, schedule: Q01DX001 (ip), vehicle: saline 98 % of control

CC(=O)C1=CC(=O)NC(=O)C1C(=O)CC(C)C (stereo unspecified)
inactive: dose: 0.78 mg/kg/injection, schedule: Q01DX009 (ip), vehicle: Klucel (hydroxypropylcellulose) (HPC) 97 % of control | dose: 1.56 mg/kg/injection, schedule: Q01DX009 (ip), vehicle: Klucel (hydroxypropylcellulose) (HPC) 97 % of control | dose: 3.12 mg/kg/injection, schedule: Q01DX009 (ip), vehicle: Klucel (hydroxypropylcellulose) (HPC) 93 % of control | dose: 6.25 mg/kg/injection, schedule: Q01DX009 (ip), vehicle: Klucel (hydroxypropylcellulose) (HPC) 98 % of control | dose: 12.5 mg/kg/injection, schedule: Q01DX009 (ip), vehicle: Klucel (hydroxypropylcellulose) (HPC) 98 % of control | dose: 12.5 mg/kg/injection, schedule: Q04DX003 (ip), vehicle: Klucel (hydroxypropylcellulose) (HPC) 98 % of control | dose: 25.0 mg/kg/injection, schedule: Q04DX003 (ip), vehicle: Klucel (hydroxypropylcellulose) (HPC) 96 % of control

CC(C)(C)NC(=O)C1C2C=CC(CC2)C1C(=O)NC(C)(C)C (stereo unspecified)
inactive: [4] 100 % of control | [5] 96 % of control | [6] 92 % of control

Cc1ccc(C)c(S(N)(=O)=O)c1
inactive: [1] 106 % of control | [2] 100 % of control | [3] 103 % of control

CC12CCC3C(CCC4CC5SC5CC43C)C1CCC2O (stereo unspecified)
inactive: [1] 108 % of control | [2] 111 % of control | [3] 101 % of control

COc1ccc(Cl)cc1NC(=O)Oc1ccc(SC)c(C)c1
inactive: [17] 95 % of control | [7] 95 % of control | [13] 97 % of control and 98 % of control | [18] 91 % of control | [8] 98 % of control | [14] 98 % of control and 89 % of control | [19] 91 % of control | [9] 90 % of control | [15] 92 % of control and 98 % of control

CC1(C)OC2OC(COC(=O)c3ccccc3)C(OC(=O)Nc3ccccc3)C2O1 (stereo unspecified)
inactive: [4] 93 % of control | [5] 98 % of control | [6] 97 % of control

CCOC(=N)CC(=N)OCC
inactive: dose: 100.0 mg/kg/injection, schedule: Q01DX009 (ip), vehicle: water 96 % of control | dose: 100.0 mg/kg/injection, schedule: Q04DX003 (ip), vehicle: water 97 % of control | dose: 200.0 mg/kg/injection, schedule: Q01DX009 (ip), vehicle: water 101 % of control | dose: 200.0 mg/kg/injection, schedule: Q04DX003 (ip), vehicle: water 93 % of control | dose: 400.0 mg/kg/injection, schedule: Q01DX009 (ip), vehicle: water 97 % of control | dose: 400.0 mg/kg/injection, schedule: Q04DX003 (ip), vehicle: water 97 % of control

Cc1c(Cl)cccc1NC(=O)Nc1nccs1
inactive: [16] 103 % of control | [7] 101 % of control and 104 % of control | [13] 100 % of control and 103 % of control | [4] 101 % of control | [8] 100 % of control | [14] 95 % of control and 96 % of control | [5] 114 % of control | [15] 109 % of control

COC(=O)C1C(O)C(C)C(O)OC1C(C)C(O)C(C)/C=C\C=C(/C)C(=O)Nc1c(C)c(OC(C)=O)c2c(c1O)C(=O)C(C)=C1OCOC(/C(C)=C/C(C)=O)=C12 (stereo unspecified)
inactive: dose: 100.0 mg/kg/injection, schedule: Q04DX003 (ip), vehicle: saline 95 % of control | dose: 200.0 mg/kg/injection, schedule: Q04DX003 (ip), vehicle: saline 102 % of control | dose: 400.0 mg/kg/injection, schedule: Q04DX003 (ip), vehicle: saline 93 % of control

CCO[Si](CC)(CC)CC
inactive: [10] 100 % of control | [11] 98 % of control | [12] 102 % of control

COc1ccc(-c2c([N+](=O)[O-])ccc(Cl)c2[N+](=O)[O-])cc1
inactive: dose: 50.0 mg/kg/injection, schedule: Q01DX001 (ip), vehicle: carboxymethylcellulose (CMC) 94 % of control | dose: 100.0 mg/kg/injection, schedule: Q01DX001 (ip), vehicle: carboxymethylcellulose (CMC) 117 % of control | dose: 200.0 mg/kg/injection, schedule: Q01DX001 (ip), vehicle: carboxymethylcellulose (CMC) 107 % of control | dose: 400.0 mg/kg/injection, schedule: Q01DX001 (ip), vehicle: carboxymethylcellulose (CMC) 102 % of control
